Source: patent US6190848A, “Color photographic element containing ballasted triazole derivative and inhibitor releasing coupler” (priority 1999, dated 2001)

Assay: Single layer film element contrast (gamma) reduction by DI(A)R couplers, KODAK FLEXICOLOR C-41
Conditions: DIR tested at 0.055 mmol/m^2, relative to non-inhibitor containing check
Description: The mild inhibitor fragments that are used in this invention are defined as those that cause less than a 45% gamma reduction, or more preferably less than a 40% gamma reduction, relative to a non-inhibitor containing check when coated as the following single layer film element on a cellulose triacetate film support (coverages are in g/m^2):
Overcoat Gelatin at 2.79 and 0.02 bis-vinylsulfonemethylether
Imaging Layer Gelatin at 2.79
Magenta Image Coupler M-1 (dispersed at 80% by
weight in tricresyl phosphate and 20% by weight
N,N-dibutyl-2-butoxy-5-t-octylaniline) at 0.692
DIR being tested at 0.055 mmol/m^2 ( dispersed in twice
its weight in N,N-dibutyllauramide)
Green sensitized AgBrI at 1.08
Samples of each element were given a stepped exposure and processed in the KODAK FLEXICOLOR™ (C-41) process as described in British Journal of Photography Annual, 1988, pp 196-198. Contrast of the elements was determined using the maximum slope between any two density points.

Compound	% Contrast Reduction [%]
CCCCCCCCCCCCCCOc1ccccc1NC(=O)c1cc(Oc2ccc(CSc3nnnn3Cc3ccc(OC)cc3)cc2[N+](=O)[O-])c2ccccc2c1O [CDIR-1]	-55.4
CCC(Oc1ccc(C(C)(C)CC)cc1C(C)(C)CC)C(=O)Nc1ccc(N2N=C(N3CCCC3)C(Sc3nnnn3-c3ccccc3)C2=O)cc1 (stereo not shown) [CDIR-2]	-67.1
CCCCCCCCCCCCCCOc1ccccc1NC(=O)c1cc(Oc2ccc([N+](=O)[O-])cc2CN(C(=O)Sc2nnnn2-c2ccccc2)C(C)C)c2ccccc2c1O [CDIR-3]	-75.7
CCCCCCCCCCCCCCOc1ccccc1NC(=O)c1cc(Oc2ccc(CSc3nnnn3-c3ccccc3)cc2[N+](=O)[O-])c2ccccc2c1O [CDIR-4]	-77.1
CCCCCCCCCCCCCCOc1ccccc1NC(=O)c1cc(Oc2ccc(CSc3nnnn3-c3ccccc3)cc2[N+](=O)[O-])c2ccccc2c1O [CDIR-5]	-70.5
CCCCCCCCCCCCCCOc1ccccc1NC(=O)c1cc(Sc2nnnn2-c2ccccc2)c2ccccc2c1O [CDIR-6]	-75.4
CCCCCCCCCCCCCCCCS(=O)(=O)Nc1ccc(Cl)c(NC(=O)C(Oc2ccc([N+](=O)[O-])cc2CN(CC)C(=O)Sc2nnnn2-c2ccccc2)C(=O)C(C)(C)C)c1 (stereo not shown) [CDIR-7]	-63.9
CCCCCCOC(=O)c1nn(C2C(=O)N(c3ccc(NC(=O)C(CC)Oc4ccc(C(C)(C)CC)cc4C(C)(C)CC)cc3)N=C2C)nc1C (stereo not shown) [CDIR-8]	-49.2
CCCCCCCCCCC(Oc1ccc(S(=O)(=O)c2ccc(O)cc2)cc1)C(=O)Nc1ccc(N2N=C(C)C(n3nc(C)c(C(=O)OCCCCCC)n3)C2=O)cc1 (stereo not shown) [CDIR-9]	-50.1
CCCCCCCCCCCCCCCCS(=O)(=O)Nc1ccc(Cl)c(NC(=O)C(C(=O)C(C)(C)C)n2nc(C)c(C(=O)OCCCCCC)n2)c1 (stereo not shown) [CDIR-10]	-53.8
CCCCCCCCCCCCCCCCS(=O)(=O)Nc1ccc(Cl)c(NC(=O)C(C(=O)C(C)(C)C)n2ncc(SCC(=O)OCCCCCC)n2)c1 (stereo not shown) [CDIR-11]	-58.6
CCCCCCCCCCCCCCCCS(=O)(=O)Nc1cc(CSc2nnnn2CC(=O)OCCC)ccc1Oc1cc(C(N)=O)c(O)c2ccccc12 [IDIR-1]	-34.5
CCCCCCCCCCCCCCCCS(=O)(=O)Nc1ccc(Cl)c(NC(=O)C(Oc2ccc([N+](=O)[O-])cc2CN(CC)C(=O)Sc2nnnn2CC(=O)OCCC)C(=O)C(C)(C)C)c1 (stereo not shown) [IDIR-2]	-25.3
CCCCCCCCCCCCOc1ccc(C)cc1NC(=O)c1cc(Oc2ccc(CSc3nnnn3CC(=O)OCCC)cc2[N+](=O)[O-])c2ccccc2c1O [IDIR-3]	-24.5
CCCOC(=O)Cn1nnnc1SC1C(=O)N(c2ccc(NC(=O)C(CC)Oc3ccc(C(C)(C)CC)cc3C(C)(C)CC)cc2)N=C1N1CCCC1 (stereo not shown) [IDIR-4]	-22.6
CCCCCCCCCCCCOC(=O)C(C)OC(=O)c1ccc(Cl)c(NC(=O)C(C(=O)Nc2cc(C(=O)OC(C)C(=O)OCCCCCCCCCCCC)ccc2Cl)n2nnc3cc(Cl)c(Cl)cc32)c1 (stereo not shown) [IDIR-7]	-20.0
CCCCCCCCCCCCCCOc1ccccc1NC(=O)c1cc(Sc2nnnn2CC)c2ccccc2c1O [IDIR-8]	-2.4

Assay: Bilayer photographic element: interimage (Cg/Cb+g) and relative green sensitivity
Conditions: Table II, IDIR-2 in blue layer; IEM or CIEM at 7.2×10^-3 mmol/m^2
Procedure: Bilayer photographic elements were prepared by coating the following layers on a cellulose triacetate film support (coverages are in g/m^2). Unless otherwise noted, all comparative and inventive compounds were dispersed in twice their own weight of N,N-dibutyllauramide:
Layer 1 (Antihalation Layer): black colloidal elemental silver at 0.34 and gelatin at2.41.
Layer 2 (Receiver Layer): gelatin at 2.79, CDIR-2 at 0.03, coupler M-1 (dispersed as described previously) added at 0.045, comparison material (CIEM) or IEM added at 7.2×10^-3 mmol/m^2 (this corresponds to 1.67 mmol per mole silver as AgBr or 0.96 mmol per mole of silver) dispersed in twice its own weight of N,N-dibutyllauramide and 0.81 green sensitized AgIBr tabular emulsion.
Layer 3 (Interlayer): gelatin at 0.64, ILS-1 at 0.11 and FD-1 at 0.11.
Layer 4 (Causer Layer): gelatin at 2.79, coupler Y-1 at 0.91, 0.79 blue sensitized AgIBr tabular emulsion and the DIR at 0.11 mmol/m^2.
Layer 5 (Overcoat): gelatin at 2.79 and 0.02 bis-vinylsulfonemethylether.
Samples of each element were given a stepped exposure of either green light only or blue and green light combined and processed in the KODAK FLEXICOLOR (C-41) process as described in British Journal of Photography Annual, 1988, pp196-198. Contrast of the elements was determined using the maximum slope between any two density points. In this test, the ratio of the contrast of the green only exposure to the contrast of the green of a blue and green exposure (Cg /Cb+g) is a measure of the interimage. A higher ratio means more inhibition originating from the blue and affecting the green record.
Another set of bilayer experiments were generated in a similar manner to show the effect of IEM laydown (as mmol per mol silver) and DIR variations.

Compound	Cg /Cb+g (interimage ratio)
CCCCCCCC(=O)Nc1ccc2[nH]nnc2c1 [CIEM-1]	1.25
CCCCC(CC)CNC(=O)c1ccc2[nH]nnc2c1 (stereo not shown) [CIEM-2]	1.26
CCCCCCCCCOC(=O)c1nc[nH]n1 [CIEM-3]	1.23
CCCCCCSCCOC(=O)c1nc[nH]n1 [CIEM-4]	1.19
CCCCCCCCc1nc2ccccc2[nH]1 [CIEM-5]	1.19
O=S(=O)(NCCc1ccccc1)c1ccc2[nH]nnc2c1 [CIEM-6]	1.24
CCCSCCCOC(=O)c1ccc2[nH]nnc2c1 [CIEM-7]	1.26
CCCCCCCCCCOC(=O)CSc1nnc[nH]1 [CIEM-8]	1.22
O=C(Nc1cccc(Oc2ccccc2)c1)c1ccc2[nH]nnc2c1 [CIEM-9]	1.30
O=C(c1ccc2[nH]nnc2c1)N1CCCc2ccccc21 [CIEM-10]	1.18
CCCCc1ccc(NC(=O)c2ccc3[nH]nnc3c2)cc1 [CIEM-11]	1.26
O=C(Oc1ccccc1)c1ccc2[nH]nnc2c1 [CIEM-12]	1.24
CCC(C)(C)c1ccc(OCCCCC(=O)Nc2ccc3c(c2)nnn3C(=O)N2CCOCC2)c(C(C)(C)CC)c1 [CIEM-13]	1.30
CCC(C)(C)c1ccc(OCCCCC(=O)Nc2ccc3c(c2)nnn3C)c(C(C)(C)CC)c1 [CIEM-14]	1.31
CCCCCCCCCCCCCCCc1cccc(OCCCCNC(=O)c2ccc3[nH]nnc3c2)c1 [CIEM-15]	1.26
CCCCCCCCCCCCSc1nc2ccccc2[nH]1 [CIEM-16]	1.27
CCC(C)(C)c1ccc(OCCCCNC(=O)CSc2nc3ccccc3[nH]2)c(C(C)(C)CC)c1 [CIEM-17]	1.23
CCCCCCCCCC(=O)Nc1ccc2[nH]nnc2c1 [IEM-B]	1.39
CCCCCCCCCCCC(=O)Nc1ccc2[nH]nnc2c1 [IEM-C]	1.64
CCCCCCCCCCC(Oc1ccc(S(=O)(=O)c2ccc(O)cc2)cc1)C(=O)Nc1ccc2[nH]nnc2c1 (stereo not shown) [IEM-D]	1.49
CCCCCCCCCCCCSc1nc[nH]n1 [IEM-H]	1.44

Same assay, conditions: bilayer, --N--H group removed

Compound	interimage effect
CCC(C)(C)c1ccc(OCCCCC(=O)Nc2ccc3c(c2)nnn3C(=O)N2CCOCC2)c(C(C)(C)CC)c1 [CIEM-13]	the effect is insufficient
CCC(C)(C)c1ccc(OCCCCC(=O)Nc2ccc3c(c2)nnn3C)c(C(C)(C)CC)c1 [CIEM-14]	the effect is insufficient
